Structures are written as SMILES.

One assay deals with HUDEP2 cells. The assay can be described thus: Fetal hemoglobin (HbF) upregulation assay of HUDEP2 cells. Format: cell-based. The protocol: HUDEP2 cells were maintained and passaged every 2-3 days by seeding 300,000 viable cells/mL in a culture flask containing HUDEP2 Growth Media comprised of StemSpan SFEM (Stemcell Technologies #09650), 50 ng/mL human stem cell factor (Stemcell Technologies #78062.2), 3 IU/mL erythropoietin (ThermoFisher #PHC2054), 1 μM dexamethasone (Sigma #D2915), and […] doxycycline (Sigma #D3072). HUDEP2 cells were differentiated towards erythroid lineage by seeding at 25,000 viable cells/well in 96-well V-Bottom plates (Corning #3894) containing 135 μL HUDEP2 Differentiation Media comprised of Iscove's Modified Dulbecco's Medium (Stemcell Technologies #36150), 1% L-glutamine (ThermoFisher #25030081), 2% penicillin-streptomycin (ThermoFisher #15140122), 330 μg/mL holo-human transferrin (Sigma #T0665), 2 IU/mL heparin (Stemcell Technologies #07980), 10 μg/mL recombinant human insulin (Sigma #91077C), 3 IU/mL erythropoietin (ThermoFisher #PHC2054), 100 ng/mL human stem cell factor (Stemcell Technologies #78062.2), and 4% fetal bovine serum (ThermoFisher #A3160502). Chemical probes for treatment were resuspended in 100 μL of Iscove's Modified Dulbecco's Medium (Stemcell Technologies #36150) to a 10× concentration, and 15 μL of 10× concentrated chemical probes were added to each well for a total well volume of 150 μL. HUDEP2 cells were left to incubate at 37° C., 85% relative humidity, and 5% CO2 for 3 days. On Day 3, assay plates containing HUDEP2 cells were centrifuged at 500×g for 5 minutes. After centrifugation cells were pelleted to the bottom of the well, and 100 μL of media aspirated from the well without disturbing the cells. Then 90 μL of fresh HUDEP2 Differentiation Media and 10 μL of 10× concentrated chemical probes were added back each well. For the H3K27me3 assay, cells were harvested on Day 4 of treatment. The HUDEP2 cells were centrifuged at 500×g for 5 minutes and all media was aspirated from the well. Then 150 μL of phosphate buffered saline (ThermoFisher #10010023) was added to each well to resuspend the cells. Finally, 50 μL of the HUDEP2 cell suspension from each well was transferred to a poly-d-lysine coated 384-well plate (Corning Cat #356697) and centrifuged at 1000×g for 5 minutes before proceeding to ICC Fix and Stain Protocol. Assay plates for the HbF assay were returned to the incubator until Day 5, where the media was exchanged and chemical probes added exactly as on Day 3. On Day 7 of the HbF assay, the HUDEP2 cells were harvested in the same manner as described for the H3K27me3 assay before proceeding to ICC Fix and Stain Protocol.
The Fix and Stain Protocol was the same for HEK293T, HUDEP2, and Primary CD34+ cell assays except the specific primary and secondary antibodies used for detection. Following 4 days of compound treatment, the respective plates were washed once with 25 μL of PBS (ThermoFisher #10010023) and fixed with 25 μL of 4% paraformaldehyde (ThermoFisher #28908) for 10 minutes at room temperature. The plates were then washed three times with 25 μL of PBS. Subsequent to that, the cells were permeabilized and blocked for 1 hour at room temperature in 25 μL of Perm/Block buffer comprised of IX PBS, 1% bovine serum albumin (ThermoFisher #A3294), 10% fetal bovine serum (ThermoFisher #A3160502), 0.3M glycine (Sigma #G7126), and 0.1% tween-20 (Sigma #P7949). This was followed by additional washing (three times) of the plates with 25 μL of 0.1% tween in PBS.
Plates for the HbF assay were treated similarly as described above except that HbF Primary Antibody (ThermoFisher #MHFH01-4) diluted 1:40 in 0.1% tween-20 in PBS and Hoescht (ThermoFisher #H3570) diluted 1:2000 in 0.1% tween-20 in PBS were used for detection.
The plates were then scanned on the CX7 at 10× magnification, and 9 images were acquired per well. The software algorithm then identified nuclei and calculated a total nuclei count using the Hoechst staining on channel 1. […]

Assay [1] deals with Human Mobilized Peripheral Blood Primary CD34+ cells. The assay can be described thus: Fetal hemoglobin (HbF) upregulation assay of CD34+ cells. Format: cell-based. The method, then: Human Mobilized Peripheral Blood Primary CD34+ cells were expanded from thaw by seeding 100,000 viable cells/mL in a culture flask containing CD34+ Expansion Media comprised of StemSpan SFEMII (Stemcell Technologies #09655), 1% erythroid expansion supplement (Stemcell Technologies #02692), and 1 μM dexamethasone (Sigma #D2915). The cells were supplemented by adding an additional IX culture volume of CD34+ Expansion Media on Day 3 after thaw. After 7 days of expansion, Primary CD34+ cells were differentiated towards erythroid lineage by seeding at 15,000 viable cells/well in 96-well V-Bottom plates (Corning #3894) containing 135 μL CD34+ Differentiation Media comprised of StemSpan SFEMII (Stemcell Technologies #09655), 3% normal human serum (Sigma #H4522), 3 IU/mL erythropoietin (ThermFisher #PHC2054). Chemical probes for treatment were resuspended in 100 μL of Iscove's Modified Dulbecco's Medium (Stemcell Technologies #36150) to a 10× concentration, and 15 μL of 10× concentrated chemical probe was added to each well for a total well volume of 150 μL. Primary CD34+ cells were left to incubate at 37° C., 85% relative humidity, and 5% C02 for 3 days. On Day 3, assay plates containing Primary CD34+ cells were centrifuged at 500×g for 5 minutes. After centrifugation cells were pelleted to the bottom of the well, and 100 μL of media aspirated from the well without disturbing the cells. Then 90 μL of fresh CD34+ Differentiation Media and 10 μL of 10× concentrated chemical probes were added back each well. For the H3K27me3 assay, cells were harvested on Day 4 of treatment. The Primary CD34+ cells were centrifuged at 500×g for 5 minutes and all media was aspirated from the well. Then 150 μL of phosphate buffered saline (ThermoFisher #10010023) was added to each well to resuspend the cells. Finally, 50 μL of the Primary CD34+ cell suspension from each well was transferred to a poly-d-lysine coated 384-well plate (Corning Cat #356697) and centrifuged at 1000×g for 5 minutes before proceeding to ICC Fix and Stain Protocol. Assay plates for the HbF assay were returned to the incubator until Day 5, where the media was exchanged and chemical probes added exactly as on Day 3. On Day 7 of the HbF assay, the Primary CD34+ cells were harvested in the same manner as described for the H3K27me3 assay before proceeding to ICC Fix and Stain Protocol. […]
The plates were then scanned on the CX7 at 10× magnification, and 9 images were acquired per well. The software algorithm then identified nuclei and calculated a total nuclei count using the Hoechst staining on channel 1. After nuclei were identified, the algorithm calculated the average nuclear intensity of the H3K27me3 or HbF staining on channel 2. […]

Regarding `CS(=O)(=O)c1ccc(-c2cc3c(n4cnnc24)NCc2c(F)ccc4c2C(CO4)CO3)cc1` (stereo not shown) [Example 36], in the assay on HUDEP2 cells, the EC50 lay in the range of 50 to 100 nM.

`COc1ncc(-c2cc3c(n4cnnc24)NCc2c(F)ccc4c2[C@H](CO4)CO3)cn1` [Example 30]: the EC50 with HUDEP2 cells lay within 100 to 500 nM.

For `Cc1ncc(-c2cc3c(n4cnnc24)NCc2c(F)ccc4c2[C@@H](CO4)CO3)c(C)n1` [Compound 13, (S)-4-(2,4-dimethylpyrimidin-5-yl)-12-fluoro-7a,8,13,14-tetrahydro-7H-[1,2,4]triazolo[4′,3′:1,6]pyrido[3,2-b]benzofuro[4,3-fg][1,4]oxazonine], in the assay on HUDEP2 cells, the concentration for a half-maximal effect (EC50) lay within 50 to 100 nM.

With `Cn1nccc1-c1cc2c(n3cnnc13)NCc1c(F)ccc3c1C(CO3)CO2` (stereo not shown) [Example 17], the EC50 (in the assay on HUDEP2 cells; in assay [1]) was less than 25 nM throughout.

For the molecule `Cn1nc(C(F)(F)F)cc1-c1cc2c(n3cnnc13)NCc1c(F)ccc3c1[C@H](CO3)CO2` [Example 115], the concentration giving a half-maximal response (EC50) was less than 25 nM in the assay with HUDEP2 cells and 50 to 100 nM in assay [1].

The molecule `Cc1cc(C#N)ccc1-c1cc2c(n3cnnc13)NCc1c(F)ccc3c1[C@H](CO3)CO2` [Example 49] gave a 50% effective concentration (EC50) with HUDEP2 cells of 50 to 100 nM.

The molecule `Fc1cncnc1-c1cc2c(n3cnnc13)NCc1c(F)ccc3c1[C@@H](CO3)CO2` [Compound 164, (S)-12-fluoro-4-(5-fluoropyrimidin-4-yl)-7a,8,13,14-tetrahydro-7H-[1,2,4]triazolo[4′,3′:1,6]pyrido[3,2-b]benzofuro[4,3-fg][1,4]oxazonine] came in with an EC50 in assay [1] of less than 25 nM.

`Cc1cn(-c2cc3c(n4cnnc24)NCc2c(F)ccc4c2[C@@H](CO4)CO3)cn1` [Compound 15, (S)-12-fluoro-4-(4-methyl-1H-imidazol-1-yl)-7a,8,13,14-tetrahydro-7H-[1,2,4]triazolo[4′,3′:1,6]pyrido[3,2-b]benzofuro[4,3-fg][1,4]oxazonine] displayed a concentration for a half-maximal effect (EC50) in assay [1] of 100 to 500 nM.

The values are drawn from US20220160686A1, “MACROCYCLIC AZOLOPYRIDINE DERIVATIVES AS EED AND PRC2 MODULATORS” (Fulcrum Therapeutics, Inc., priority 2019, published 2022).
